From patent publication US8318976B2, “Salts, aqueous liquid compositions containing salts of S-(+)-abscisic acid and methods of their preparation” (Valent BioSciences Corporation, priority 2007, dated 2012)
Where two headings read alike, the source gives them in different places.

How the values were obtained:
[1] = literature reports; cited from earlier work
[2] = test system: tomato leaf transpiration; assay: Tomato leaf transpiration rate after foliar spray (LI-1600 porometer); type: in vivo, Tomato (variety: Rutgers); settings: for Transpiration rate (% of control), 3-Day Average: average of days 1-3; for Transpiration rate (% of control), Days after treatment 1: day 1; for Transpiration rate (% of control), Days after treatment 2: day 2; for Transpiration rate (% of control), Days after treatment 3: day 3
Experimental: Preparation of plant specimens for use in the treatment studies of the EXAMPLES that follow was carried out as follows. Tomato (variety: Rutgers) seeds were sown in an 18-cell flat filled with Promix PGX (available from Premier Horticulture Inc., Quakertown Pa.) and grown for 3 weeks to allow for germination and initial growth. Plants were then transplanted into pots (18 cm in diameter and 18 cm in height), filled with Promix BX (available from Premier Horticulture Inc., Quakertown Pa.), and grown for one or two more weeks before treatment, depending on temperature and available light. Plants received daily irrigation and weekly fertilizer (1 g/L all purpose fertilizer 20-20-20, available from The Scotts Company, Marysville, Ohio).
All treatment solutions were made up with distilled water. The (S)-(+)-abscisic acid (95% active ingredient) is available from Lomon BioTechnology Co., Ltd. (Shichuan, China). Twenty L of a 250 ppm solution of (S)-(+)-abscisic acid was prepared and stored in the dark at 20-25° C. This same 250-ppm (S)-(+)-abscisic acid solution was used as a control for all studies to eliminate the possibility of applying an incorrect concentration.
All experiments were conducted using a randomized complete block experimental design. Solutions of (S)-(+)-abscisic acid and blank treatments (plain water) were applied by spray to the aerial parts of the tomato plants at the rate of 20 mL per 6 plants. Plants were then placed in a transparent chamber with humidity controlled within the range of 40 to 60% relative humidity. Leaf transpiration rates were measured at 1, 2 and 3 days after treatment. Measurements were conducted using a LI-1600 Steady State Porometer (LI-Cor, Lincoln, Nebr.). Each day the transpiration rate of the plants of each treatment group was normalized to a percentage of the transpiration rate of untreated plants (plants sprayed with water only) in order to control for day-to-day variability in plant status caused by changes of environmental conditions such as light intensity and temperature. Data of each plant was also averaged over a 3-day period to balance the short term and long term effect of (S)-(+)-abscisic acid on tomato leaf transpiration as well as to reduce experimental variability.

[3] = test system: California Blackeye Pea (cowpea); assay: Phytotoxicity and growth after foliar application; type: in vivo; settings: for % Leaf Area Damaged 3 days after treatment: monofoliate leaves
Experimental: Phytotoxicity is defined as damage to a plant caused by treatment with an externally applied chemical substance. Phytotoxicity caused by application of an agricultural chemical is considered highly undesirable (except in the case of herbicides). To test the relative safety of the compositions of the present invention, comprising an ammonium salt of (S)-(+)-abscisic acid, as compared to compositions of the prior art, comprising an ammonium salt of (R,S)-(±)-abscisic acid, plants were treated with solutions containing two different concentrations of the (S)-(+)-abscisic acid or with solutions containing (R,S)-(±)-abscisic acid at concentrations in which either the total concentration of (R,S)-(±)-abscisic acid was equal to the higher concentration of (S)-(+)-abscisic acid or in which the concentration of (S)-(+)-abscisic acid contained in the (R,S)-(±)-abscisic acid was equal to the higher treatment concentration of the pure (S)-(+)-abscisic acid. California Blackeye Pea (cowpea) seed was planted into 18 cell flats filled with Promix PGX in a greenhouse. When the plants had grown to a point where the monofoliate leaves were fully expanded and the first trifoliate leaves were emerging (18 days after planting) the plants were sprayed with 1.5 ml of treatment solution. After treatment the plants were held in the greenhouse and evaluated for damage to the monofoliate leaves and also for growth of the trifoliate leaves. The percentage of the monofoliate leaf area that was damaged was estimated three days after treatment, and monofoliate leaf abscission and trifoliate leaf development were determined on the fifth day after treatment.

[4] = cited from earlier work; for highest concentration achievable in water: pure water, room / ordinary ambient temperature

CC1=CC(=O)CC(C)(C)[C@]1(O)/C=C/C(C)=C\C(=O)O [(R)-(−)-abscisic acid]
biological activity [1]: biologically inactive

CC1=CC(=O)CC(C)(C)C1(O)/C=C/C(C)=C\C(=O)O.N (racemic) [(R,S)-(±)-abscisic acid ammonium salt]
Transpiration rate (% of control), 3-Day Average ([2]; Table 8, 250 ppm spray): 90.95 % of control | Transpiration rate (% of control), Days after treatment 1 ([2]; Table 8, 250 ppm spray): 90.26 % of control | Transpiration rate (% of control), Days after treatment 2 ([2]; Table 8, 250 ppm spray): 87.73 % of control | Transpiration rate (% of control), Days after treatment 3 ([2]; Table 8, 250 ppm spray): 94.86 % of control | Transpiration rate (% of control), 3-Day Average ([2]; Table 8, 500 ppm spray): 81.03 % of control | Transpiration rate (% of control), Days after treatment 1 ([2]; Table 8, 500 ppm spray): 77.53 % of control | Transpiration rate (% of control), Days after treatment 2 ([2]; Table 8, 500 ppm spray): 76.20 % of control | Transpiration rate (% of control), Days after treatment 3 ([2]; Table 8, 500 ppm spray): 89.36 % of control | Average Number of Abscised Monofoliate Leaves 5 days after treatment ([3]; 6250 ppm foliar spray): 1.7 | Average Number of New Trifoliate Leaves 5 days after treatment ([3]; 6250 ppm foliar spray): 0.0 | % Leaf Area Damaged 3 days after treatment ([3]; 6250 ppm foliar spray): 97% | Average Number of Abscised Monofoliate Leaves 5 days after treatment ([3]; 12500 ppm foliar spray): 2.0 | Average Number of New Trifoliate Leaves 5 days after treatment ([3]; 12500 ppm foliar spray): 0.0 | % Leaf Area Damaged 3 days after treatment ([3]; 12500 ppm foliar spray): 100% | relative phytotoxicity, (S)-(+)- vs (R,S)-(±)-abscisic acid salt ([3]; equal total dose or equal (S)-(+)-enantiomer dose): more phytotoxicity

CC(C=C[C@@]1(O)C(C)=CC(=O)CC1(C)C)=CC(=O)O [(S)-(+)-2-trans-,4-trans-isomer]
biological activity [1]: biologically inactive

CC1=CC(=O)CC(C)(C)[C@@]1(O)/C=C/C(C)=C\C(=O)O [(S)-(+)-abscisic acid, 2-cis-, 4-trans-(S)-(+)-abscisic acid]
solubility in hard water ([4]; hard water, compared with pure water): even less | solubility in propylene glycol ([4]; propylene glycol): poorly soluble | highest concentration achievable in water [4]: ≤ 3000 ppm | highest concentration achievable in water ([4]; listed as abscisic acid): about 3000 ppm | Transpiration rate (% of control), 3-Day Average ([2]; Table 1, 250 ppm spray): 87.02 % of control | Transpiration rate (% of control), Days after treatment 1 ([2]; Table 1, 250 ppm spray): 75.59 % of control | Transpiration rate (% of control), Days after treatment 2 ([2]; Table 1, 250 ppm spray): 89.83 % of control | Transpiration rate (% of control), Days after treatment 3 ([2]; Table 1, 250 ppm spray): 95.63 % of control | Transpiration rate (% of control), 3-Day Average ([2]; Table 2, 250 ppm spray): 87.02 % of control | Transpiration rate (% of control), Days after treatment 1 ([2]; Table 2, 250 ppm spray): 75.59 % of control | Transpiration rate (% of control), Days after treatment 2 ([2]; Table 2, 250 ppm spray): 89.83 % of control | Transpiration rate (% of control), Days after treatment 3 ([2]; Table 2, 250 ppm spray): 95.63 % of control | Transpiration rate (% of control), 3-Day Average ([2]; Table 3, 250 ppm spray): 80.78 % of control | Transpiration rate (% of control), Days after treatment 1 ([2]; Table 3, 250 ppm spray): 72.66 % of control | Transpiration rate (% of control), Days after treatment 2 ([2]; Table 3, 250 ppm spray): 76.18 % of control | Transpiration rate (% of control), Days after treatment 3 ([2]; Table 3, 250 ppm spray): 93.50 % of control | Transpiration rate (% of control), 3-Day Average ([2]; Table 4, 250 ppm spray): 83.21 % of control | Transpiration rate (% of control), Days after treatment 1 ([2]; Table 4, 250 ppm spray): 75.30 % of control | Transpiration rate (% of control), Days after treatment 2 ([2]; Table 4, 250 ppm spray): 83.65 % of control | Transpiration rate (% of control), Days after treatment 3 ([2]; Table 4, 250 ppm spray): 90.68 % of control | Transpiration rate (% of control), 3-Day Average ([2]; Table 5, 250 ppm spray): 69.00 % of control | Transpiration rate (% of control), Days after treatment 1 ([2]; Table 5, 250 ppm spray): 59.35 % of control | Transpiration rate (% of control), Days after treatment 2 ([2]; Table 5, 250 ppm spray): 71.02 % of control | Transpiration rate (% of control), Days after treatment 3 ([2]; Table 5, 250 ppm spray): 76.62 % of control | Transpiration rate (% of control), 3-Day Average ([2]; Table 7, 250 ppm spray): 78.21 % of control | Transpiration rate (% of control), Days after treatment 1 ([2]; Table 7, 250 ppm spray): 71.16 % of control | Transpiration rate (% of control), Days after treatment 2 ([2]; Table 7, 250 ppm spray): 75.23 % of control | Transpiration rate (% of control), Days after treatment 3 ([2]; Table 7, 250 ppm spray): 88.25 % of control | Transpiration rate (% of control), 3-Day Average ([2]; Table 8, 250 ppm spray): 78.21 % of control | Transpiration rate (% of control), Days after treatment 1 ([2]; Table 8, 250 ppm spray): 71.16 % of control | Transpiration rate (% of control), Days after treatment 2 ([2]; Table 8, 250 ppm spray): 75.23 % of control | Transpiration rate (% of control), Days after treatment 3 ([2]; Table 8, 250 ppm spray): 88.25 % of control
